# Assays:
# Assay type in all cases: functional
# [1] = Growth inhibition of human OVCAR3 cells assessed as cell growth at 10^-5 M after 48 hrs by sulforhodamine B assay; details: OVCAR-3, 48 h, read-out: Activity
# TK-10 = assay: Growth inhibition of human TK10 cells assessed as cell growth at 10^-5 M after 48 hrs by sulforhodamine B assay; details: TK-10, 48 h, read-out: Activity
# SK-MEL-28 = assay: Growth inhibition of human SK-MEL-28 cells assessed as cell growth at 10^-5 M after 48 hrs by sulforhodamine B assay; details: SK-MEL-28, 48 h, read-out: Activity
# [2] = Growth inhibition of human OVCAR8 cells assessed as cell growth at 10^-5 M after 48 hrs by sulforhodamine B assay; details: OVCAR-8, 48 h, read-out: Activity
# RPMI-8226 = assay: Growth inhibition of human RPMI8226 cells assessed as cell growth at 10^-5 M after 48 hrs by sulforhodamine B assay; details: RPMI-8226, 48 h, read-out: Activity
# NCI-H460 = assay: Growth inhibition of human NCI-H460 cells assessed as cell growth at 10^-5 M after 48 hrs by sulforhodamine B assay; details: NCI-H460, 48 h, read-out: Activity
# [3] = Growth inhibition of human Hs 578T cells assessed as cell growth at 10^-5 M after 48 hrs by sulforhodamine B assay; details: read-out: Activity
# [4] = Growth inhibition of human BT549 cells assessed as cell growth at 10^-5 M after 48 hrs by sulforhodamine B assay; details: BT-549, 48 h, read-out: Activity
# ACHN = assay: Growth inhibition of human ACHN cells assessed as cell growth at 10^-5 M after 48 hrs by sulforhodamine B assay; details: read-out: Activity
# A549 = assay: Growth inhibition of human A549/ATCC cells assessed as cell growth at 10^-5 M after 48 hrs by sulforhodamine B assay; details: A549, 48 h, read-out: Activity
# MDA-MB-435 = assay: Growth inhibition of human MDA-MB-435 cells assessed as cell growth at 10^-5 M after 48 hrs by sulforhodamine B assay; details: MDA-MB-435, 48 h, read-out: Activity
# PC-3 = assay: Growth inhibition of human PC3 cells assessed as cell growth at 10^-5 M after 48 hrs by sulforhodamine B assay; details: PC-3, 48 h, read-out: Activity
# [5] = Growth inhibition of human RXF393 cells assessed as cell growth at 10^-5 M after 48 hrs by sulforhodamine B assay; details: RXF 393, 48 h, read-out: Activity
# MDA-MB-468 = assay: Growth inhibition of human MDA-MB-468 cells assessed as cell growth at 10^-5 M after 48 hrs by sulforhodamine B assay; details: MDA-MB-468, 48 h, read-out: Activity
# MCF7 = assay: Growth inhibition of human MCF7 cells assessed as cell growth at 10^-5 M after 48 hrs by sulforhodamine B assay; details: MCF7, 48 h, read-out: Activity
# [6] = Growth inhibition of human UACC62 cells assessed as cell growth at 10^-5 M after 48 hrs by sulforhodamine B assay; details: UACC-62, 48 h, read-out: Activity
# SN12C = assay: Growth inhibition of human SN12C cells assessed as cell growth at 10^-5 M after 48 hrs by sulforhodamine B assay; details: read-out: Activity
# [7] = Growth inhibition of human HCT15 cells assessed as cell growth at 10^-5 M after 48 hrs by sulforhodamine B assay; details: HCT-15, 48 h, read-out: Activity
# NCI-H226 = assay: Growth inhibition of human NCI-H226 cells assessed as cell growth at 10^-5 M after 48 hrs by sulforhodamine B assay; details: NCI-H226, 48 h, read-out: Activity
# KM12 = assay: Growth inhibition of human KM12 cells assessed as cell growth at 10^-5 M after 48 hrs by sulforhodamine B assay; details: KM12, 48 h, read-out: Activity
# SK-OV-3 = assay: Growth inhibition of human SKOV3 cells assessed as cell growth at 10^-5 M after 48 hrs by sulforhodamine B assay; details: SK-OV-3, 48 h, read-out: Activity
# [8] = Growth inhibition of human HCC2998 cells assessed as cell growth at 10^-5 M after 48 hrs by sulforhodamine B assay; details: HCC 2998, 48 h, read-out: Activity
# HOP-62 = assay: Growth inhibition of human HOP62 cells assessed as cell growth at 10^-5 M after 48 hrs by sulforhodamine B assay; details: HOP-62, 48 h, read-out: Activity
# MDA-MB-231 = assay: Growth inhibition of human MDA-MB-231 cells assessed as cell growth at 10^-5 M after 48 hrs by sulforhodamine B assay; details: MDA-MB-231, 48 h, read-out: Activity
# SR = assay: Growth inhibition of human SR cells assessed as cell growth at 10^-5 M after 48 hrs by sulforhodamine B assay; details: read-out: Activity
# HT-29 = assay: Growth inhibition of human HT-29 cells assessed as cell growth at 10^-5 M after 48 hrs by sulforhodamine B assay; details: HT-29, 48 h, read-out: Activity
# [9] = Growth inhibition of human HOP92 cells assessed as cell growth at 10^-5 M after 48 hrs by sulforhodamine B assay; details: HOP-92, 48 h, read-out: Activity
# HCT-116 = assay: Growth inhibition of human HCT116 cells assessed as cell growth at 10^-5 M after 48 hrs by sulforhodamine B assay; details: HCT-116, 48 h, read-out: Activity
# NCI-H23 = assay: Growth inhibition of human NCI-H23 cells assessed as cell growth at 10^-5 M after 48 hrs by sulforhodamine B assay; details: NCI-H23, 48 h, read-out: Activity
# NCI-H522 = assay: Growth inhibition of human NCI-H522 cells assessed as cell growth at 10^-5 M after 48 hrs by sulforhodamine B assay; details: NCI-H522, 48 h, read-out: Activity
# [10] = Growth inhibition of human UO31 cells assessed as cell growth at 10^-5 M after 48 hrs by sulforhodamine B assay; details: UO-31, 48 h, read-out: Activity
# T47D = assay: Growth inhibition of human T47D cells assessed as cell growth at 10^-5 M after 48 hrs by sulforhodamine B assay; details: read-out: Activity
# [11] = Growth inhibition of human OVCAR5 cells assessed as cell growth at 10^-5 M after 48 hrs by sulforhodamine B assay; details: OVCAR-5, 48 h, read-out: Activity
# Malme-3M = assay: Growth inhibition of human MALME-3M cells assessed as cell growth at 10^-5 M after 48 hrs by sulforhodamine B assay; details: read-out: Activity
# SNB-75 = assay: Growth inhibition of human SNB75 cells assessed as cell growth at 10^-5 M after 48 hrs by sulforhodamine B assay; details: SNB-75, 48 h, read-out: Activity
# COLO 205 = assay: Growth inhibition of human COLO205 cells assessed as cell growth at 10^-5 M after 48 hrs by sulforhodamine B assay; details: COLO 205, 48 h, read-out: Activity
smiles,measurement,setting,value
O=C1/C(=C/c2c(Cl)cccc2Cl)CN(S(=O)(=O)c2ccccc2)C/C1=C\c1c(Cl)cccc1Cl,growth at 10 µM,[1],73.9%
same,growth at 10 µM,TK-10,101%
same,growth at 10 µM,SK-MEL-28,88.1%
same,growth at 10 µM,[2],77.3%
same,growth at 10 µM,RPMI-8226,63.3%
same,growth at 10 µM,NCI-H460,74%
same,growth at 10 µM,[3],93%
same,growth at 10 µM,[4],89.3%
same,growth at 10 µM,ACHN,76.3%
same,growth at 10 µM,A549,67.3%
same,growth at 10 µM,MDA-MB-435,72.7%
same,growth at 10 µM,PC-3,57.5%
same,growth at 10 µM,[5],95.3%
same,growth at 10 µM,MDA-MB-468,80.4%
same,growth at 10 µM,MCF7,48.5%
same,growth at 10 µM,[6],60.5%
same,growth at 10 µM,SN12C,86.3%
same,growth at 10 µM,[7],62%
same,growth at 10 µM,NCI-H226,110%
same,growth at 10 µM,KM12,74.8%
same,growth at 10 µM,SK-OV-3,91.9%
same,growth at 10 µM,[8],103%
same,growth at 10 µM,HOP-62,100%
same,growth at 10 µM,MDA-MB-231,71.2%
same,growth at 10 µM,SR,52.7%
same,growth at 10 µM,HT-29,71.5%
same,growth at 10 µM,[9],54.5%
same,growth at 10 µM,HCT-116,61.7%
same,growth at 10 µM,NCI-H23,82.6%
same,growth at 10 µM,NCI-H522,72.5%
same,growth at 10 µM,[10],73.7%
same,growth at 10 µM,T47D,88.8%
same,growth at 10 µM,[11],103%
same,growth at 10 µM,Malme-3M,90%
same,growth at 10 µM,SNB-75,66.2%
same,growth at 10 µM,COLO 205,92.4%

# — ChEMBL document CHEMBL3217615, “Novel 3,5-bis(arylidiene)-4-piperidone based monocarbonyl analogs of curcumin: anticancer activity evaluation and mode of action study” (2014)
